For one assay, the target named is von Hippel-Lindau disease tumor suppressor/SWI/SNF-related matrix-associated actin-dependent regulator of chromatin subfamily A member 2 (Homo sapiens) (UniProt P51531+P40337). Briefly: Protac activity at VHL/SMARCA2 in human A549 cells assessed as induction of SMARCA2 bromodomain degradation using rabbit anti-SMARCA2 antibody incubated for 18 hrs by WES capillary electrophoresis relative to initial level. Format: cell-based.
von Hippel-Lindau disease tumor suppressor/SWI/SNF-related matrix-associated actin-dependent regulator of chromatin subfamily A member 2, sequence (P51531 whole entry): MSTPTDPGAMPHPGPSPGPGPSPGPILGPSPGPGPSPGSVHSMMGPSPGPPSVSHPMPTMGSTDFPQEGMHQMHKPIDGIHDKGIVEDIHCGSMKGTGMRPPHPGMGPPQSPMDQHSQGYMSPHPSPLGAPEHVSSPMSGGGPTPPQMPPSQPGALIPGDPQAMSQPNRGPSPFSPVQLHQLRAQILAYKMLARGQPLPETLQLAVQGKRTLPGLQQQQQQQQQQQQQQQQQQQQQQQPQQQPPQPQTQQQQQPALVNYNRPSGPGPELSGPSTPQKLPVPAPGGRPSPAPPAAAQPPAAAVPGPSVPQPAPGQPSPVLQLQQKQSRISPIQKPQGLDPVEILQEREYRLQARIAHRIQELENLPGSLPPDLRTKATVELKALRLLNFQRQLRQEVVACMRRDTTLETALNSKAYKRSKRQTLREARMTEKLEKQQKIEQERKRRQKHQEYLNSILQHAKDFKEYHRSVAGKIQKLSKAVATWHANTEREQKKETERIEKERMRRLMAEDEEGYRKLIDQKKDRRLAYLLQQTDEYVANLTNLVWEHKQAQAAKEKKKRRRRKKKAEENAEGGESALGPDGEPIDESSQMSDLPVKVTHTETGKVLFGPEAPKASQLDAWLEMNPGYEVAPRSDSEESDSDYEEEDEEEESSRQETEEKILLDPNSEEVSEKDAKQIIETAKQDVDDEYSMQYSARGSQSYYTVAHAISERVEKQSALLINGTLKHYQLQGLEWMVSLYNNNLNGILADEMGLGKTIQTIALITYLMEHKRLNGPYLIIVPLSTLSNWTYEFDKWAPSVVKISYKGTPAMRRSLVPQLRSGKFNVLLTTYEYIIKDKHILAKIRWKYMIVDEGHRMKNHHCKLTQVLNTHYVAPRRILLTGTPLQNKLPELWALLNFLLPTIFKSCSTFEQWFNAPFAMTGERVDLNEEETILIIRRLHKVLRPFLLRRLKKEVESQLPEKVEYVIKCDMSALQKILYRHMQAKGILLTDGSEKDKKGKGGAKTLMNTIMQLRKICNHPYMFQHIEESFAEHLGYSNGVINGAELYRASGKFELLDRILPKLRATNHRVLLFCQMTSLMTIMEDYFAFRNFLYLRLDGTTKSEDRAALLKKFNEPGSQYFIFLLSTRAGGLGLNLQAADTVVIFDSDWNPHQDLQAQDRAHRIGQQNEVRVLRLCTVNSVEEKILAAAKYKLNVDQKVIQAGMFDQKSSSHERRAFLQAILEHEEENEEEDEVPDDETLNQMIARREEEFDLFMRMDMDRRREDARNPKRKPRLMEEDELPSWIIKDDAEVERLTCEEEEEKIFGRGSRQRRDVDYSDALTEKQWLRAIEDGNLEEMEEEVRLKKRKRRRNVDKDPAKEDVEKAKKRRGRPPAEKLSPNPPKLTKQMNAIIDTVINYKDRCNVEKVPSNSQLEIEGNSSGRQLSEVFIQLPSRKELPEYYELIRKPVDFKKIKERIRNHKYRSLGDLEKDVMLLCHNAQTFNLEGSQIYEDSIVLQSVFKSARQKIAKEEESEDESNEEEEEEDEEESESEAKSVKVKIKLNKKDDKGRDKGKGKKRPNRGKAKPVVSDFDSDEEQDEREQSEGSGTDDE
von Hippel-Lindau disease tumor suppressor/SWI/SNF-related matrix-associated actin-dependent regulator of chromatin subfamily A member 2, sequence (P40337 whole entry): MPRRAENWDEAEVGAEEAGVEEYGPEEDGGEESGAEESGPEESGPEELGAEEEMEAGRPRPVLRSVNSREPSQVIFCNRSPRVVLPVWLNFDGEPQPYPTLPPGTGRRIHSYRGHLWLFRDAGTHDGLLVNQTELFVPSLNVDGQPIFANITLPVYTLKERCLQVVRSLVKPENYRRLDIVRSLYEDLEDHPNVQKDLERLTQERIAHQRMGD
von Hippel-Lindau disease tumor suppressor/SWI/SNF-related matrix-associated actin-dependent regulator of chromatin subfamily A member 2 (Homo sapiens), sequence (P40337 whole entry, looked up): as the sequence (P40337 whole entry) above
von Hippel-Lindau disease tumor suppressor/SWI/SNF-related matrix-associated actin-dependent regulator of chromatin subfamily A member 2 (Homo sapiens), sequence (P51531 whole entry, looked up): as the sequence (P51531 whole entry) above
Take `Cc1ncsc1-c1ccc(CNC(=O)[C@@H]2C[C@@H](O)CN2C(=O)[C@@H](NC(=O)C2(F)CC2)C(C)(C)C)c(OCCCOc2ccc(CN3CCN(c4cc(-c5ccccc5O)nnc4N)CC3)cc2)c1`: the Emax is 99%.

`Cc1ncsc1-c1ccc(CNC(=O)[C@@H]2C[C@@H](O)CN2C(=O)[C@@H](NC(=O)C2(F)CC2)C(C)(C)C)c(OCCc2ccc(OCCN3CCN(c4cc(-c5ccccc5O)nnc4N)CC3)cc2)c1`: the Emax came to 99%.

As for `Cc1ncsc1-c1ccc(CNC(=O)[C@@H]2C[C@@H](O)CN2C(=O)[C@@H](NC(=O)C2(F)CC2)C(C)(C)C)c(OCCc2ccc(CN3CCN(c4cc(-c5ccccc5O)nnc4N)CC3)c(F)c2)c1`, the Emax came to 95%.

Turning to `Cc1ncsc1-c1ccc(CNC(=O)[C@@H]2C[C@@H](O)CN2C(=O)[C@@H](NC(=O)C2(F)CC2)C(C)(C)C)c(OCCOc2ccc(CN3CCN(c4cc(-c5ccccc5O)nnc4N)CC3)cc2)c1`, the Emax came out at 98%.

Take `Cc1ncsc1-c1ccc(CNC(=O)[C@@H]2C[C@@H](O)CN2C(=O)[C@@H](NC(=O)C2(F)CC2)C(C)(C)C)c(OCCCc2ccc(CN3CCN(c4cc(-c5ccccc5O)nnc4N)CC3)cc2)c1`: the maximal response (Emax) turned out to be 90%.

For `Cc1ncsc1-c1ccc(CNC(=O)[C@@H]2C[C@@H](O)CN2C(=O)[C@@H](NC(=O)C2(F)CC2)C(C)(C)C)c(OCCc2ccc(CN3CCN(c4cc(-c5ccccc5O)nnc4N)CC3)cc2)c1`, the Emax amounted to 91%.

In the next assay the target is von Hippel-Lindau disease tumor suppressor/SWI/SNF-related matrix-associated actin-dependent regulator of chromatin subfamily A member 4 (Homo sapiens) (UniProt P51532+P40337). Nature of the assay: Protac activity at VHL/SMARCA4 in human A549 cells assessed as induction of SMARCA4 bromodomain degradation using anti-SMARCA4 antibody incubated for 18 hrs by WES capillary electrophoresis relative to initial level. Format: cell-based.
von Hippel-Lindau disease tumor suppressor/SWI/SNF-related matrix-associated actin-dependent regulator of chromatin subfamily A member 4 (Homo sapiens), sequence (P40337 whole entry, looked up): as the sequence (P40337 whole entry) above
von Hippel-Lindau disease tumor suppressor/SWI/SNF-related matrix-associated actin-dependent regulator of chromatin subfamily A member 4 (Homo sapiens), sequence (P51532 whole entry, looked up): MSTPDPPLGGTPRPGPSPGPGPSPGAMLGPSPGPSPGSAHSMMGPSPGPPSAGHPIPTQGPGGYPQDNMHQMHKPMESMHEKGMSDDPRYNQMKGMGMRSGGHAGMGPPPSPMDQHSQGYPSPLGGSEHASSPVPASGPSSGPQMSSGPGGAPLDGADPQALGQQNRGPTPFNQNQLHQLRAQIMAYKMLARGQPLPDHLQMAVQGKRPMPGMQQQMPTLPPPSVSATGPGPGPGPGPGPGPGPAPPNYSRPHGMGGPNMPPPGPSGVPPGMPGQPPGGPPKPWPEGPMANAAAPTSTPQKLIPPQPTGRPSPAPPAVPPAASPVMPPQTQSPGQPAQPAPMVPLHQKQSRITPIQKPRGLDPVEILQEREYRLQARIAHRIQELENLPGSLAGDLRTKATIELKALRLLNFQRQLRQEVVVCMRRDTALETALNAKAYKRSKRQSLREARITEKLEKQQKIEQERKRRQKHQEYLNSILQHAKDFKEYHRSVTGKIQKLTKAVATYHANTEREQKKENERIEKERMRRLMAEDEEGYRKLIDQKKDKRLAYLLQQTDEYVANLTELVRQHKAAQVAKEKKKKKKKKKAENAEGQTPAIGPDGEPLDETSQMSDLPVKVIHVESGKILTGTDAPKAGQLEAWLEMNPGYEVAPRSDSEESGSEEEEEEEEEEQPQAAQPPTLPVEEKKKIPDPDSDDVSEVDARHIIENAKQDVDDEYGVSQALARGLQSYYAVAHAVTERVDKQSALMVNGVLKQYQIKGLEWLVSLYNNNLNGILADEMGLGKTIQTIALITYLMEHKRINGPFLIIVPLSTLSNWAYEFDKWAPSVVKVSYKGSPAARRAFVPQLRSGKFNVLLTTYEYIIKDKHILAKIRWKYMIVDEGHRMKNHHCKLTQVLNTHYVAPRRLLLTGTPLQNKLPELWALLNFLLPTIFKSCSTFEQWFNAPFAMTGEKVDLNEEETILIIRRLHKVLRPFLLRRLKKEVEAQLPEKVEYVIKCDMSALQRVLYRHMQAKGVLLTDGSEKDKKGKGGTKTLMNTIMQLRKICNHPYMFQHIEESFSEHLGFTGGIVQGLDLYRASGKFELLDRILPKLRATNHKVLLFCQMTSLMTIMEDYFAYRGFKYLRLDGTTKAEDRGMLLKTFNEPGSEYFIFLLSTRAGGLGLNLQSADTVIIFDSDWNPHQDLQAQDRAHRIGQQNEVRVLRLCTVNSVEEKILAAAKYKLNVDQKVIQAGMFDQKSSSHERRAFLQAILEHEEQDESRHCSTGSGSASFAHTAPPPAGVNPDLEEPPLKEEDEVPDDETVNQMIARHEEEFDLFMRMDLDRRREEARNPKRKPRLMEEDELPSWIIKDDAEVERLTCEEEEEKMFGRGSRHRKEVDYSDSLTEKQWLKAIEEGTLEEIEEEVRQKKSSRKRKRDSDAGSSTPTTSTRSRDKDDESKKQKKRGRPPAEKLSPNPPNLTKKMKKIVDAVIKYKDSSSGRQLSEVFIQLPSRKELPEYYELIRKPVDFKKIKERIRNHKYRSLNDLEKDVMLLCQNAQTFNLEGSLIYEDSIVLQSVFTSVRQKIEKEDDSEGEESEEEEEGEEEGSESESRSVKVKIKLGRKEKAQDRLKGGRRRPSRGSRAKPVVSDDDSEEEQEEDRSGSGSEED
On to `Cc1ncsc1-c1ccc(CNC(=O)[C@@H]2C[C@@H](O)CN2C(=O)[C@@H](NC(=O)C2(F)CC2)C(C)(C)C)c(OCCCOc2ccc(CN3CCN(c4cc(-c5ccccc5O)nnc4N)CC3)cc2)c1`, for which the Emax worked out at 100%.

As for `Cc1ncsc1-c1ccc(CNC(=O)[C@@H]2C[C@@H](O)CN2C(=O)[C@@H](NC(=O)C2(F)CC2)C(C)(C)C)c(OCCc2ccc(OCCN3CCN(c4cc(-c5ccccc5O)nnc4N)CC3)cc2)c1`, the Emax was determined as 99%.

Consider `Cc1ncsc1-c1ccc(CNC(=O)[C@@H]2C[C@@H](O)CN2C(=O)[C@@H](NC(=O)C2(F)CC2)C(C)(C)C)c(OCCc2ccc(CN3CCN(c4cc(-c5ccccc5O)nnc4N)CC3)c(F)c2)c1`, for which the Emax was 95%.

For `Cc1ncsc1-c1ccc(CNC(=O)[C@@H]2C[C@@H](O)CN2C(=O)[C@@H](NC(=O)C2(F)CC2)C(C)(C)C)c(OCCOc2ccc(CN3CCN(c4cc(-c5ccccc5O)nnc4N)CC3)cc2)c1`, the Emax is 97%.

On to `Cc1ncsc1-c1ccc(CNC(=O)[C@@H]2C[C@@H](O)CN2C(=O)[C@@H](NC(=O)C2(F)CC2)C(C)(C)C)c(OCCCc2ccc(CN3CCN(c4cc(-c5ccccc5O)nnc4N)CC3)cc2)c1`, for which the Emax amounted to 92%.

Turning to `Cc1ncsc1-c1ccc(CNC(=O)[C@@H]2C[C@@H](O)CN2C(=O)[C@@H](NC(=O)C2(F)CC2)C(C)(C)C)c(OCCc2ccc(CN3CCN(c4cc(-c5ccccc5O)nnc4N)CC3)cc2)c1`, the Emax turned out to be 93%.

The target of another assay is von Hippel-Lindau disease tumor suppressor/SWI/SNF-related matrix-associated actin-dependent regulator of chromatin subfamily A member 4 (Homo sapiens, UniProt P40337+P51532). Briefly: Protac activity at VHL/SMARCA4 in human A549 cells assessed as induction of SMARCA4 bromodomain degradation using anti-SMARCA4 antibody incubated for 18 hrs by WES capillary electrophoresis. Format: cell-based.
von Hippel-Lindau disease tumor suppressor/SWI/SNF-related matrix-associated actin-dependent regulator of chromatin subfamily A member 4, sequence (P51532 whole entry): as the sequence (P51532 whole entry, looked up) above
von Hippel-Lindau disease tumor suppressor/SWI/SNF-related matrix-associated actin-dependent regulator of chromatin subfamily A member 4, sequence (P40337 whole entry): as the sequence (P40337 whole entry) above
Take `Cc1ncsc1-c1ccc(CNC(=O)[C@@H]2C[C@@H](O)CN2C(=O)[C@@H](NC(=O)C2(F)CC2)C(C)(C)C)c(OCCCOc2ccc(CN3CCN(c4cc(-c5ccccc5O)nnc4N)CC3)cc2)c1`: the EC50 was found to be 16 nM.

`Cc1ncsc1-c1ccc(CNC(=O)[C@@H]2C[C@@H](O)CN2C(=O)[C@@H](NC(=O)C2(F)CC2)C(C)(C)C)c(OCCc2ccc(OCCN3CCN(c4cc(-c5ccccc5O)nnc4N)CC3)cc2)c1`: the EC50 stood at 26 nM.

As to `Cc1ncsc1-c1ccc(CNC(=O)[C@@H]2C[C@@H](O)CN2C(=O)[C@@H](NC(=O)C2(F)CC2)C(C)(C)C)c(OCCc2ccc(CN3CCN(c4cc(-c5ccccc5O)nnc4N)CC3)c(F)c2)c1`, the concentration giving a half-maximal response (EC50) was determined as 33 nM.

Consider `Cc1ncsc1-c1ccc(CNC(=O)[C@@H]2C[C@@H](O)CN2C(=O)[C@@H](NC(=O)C2(F)CC2)C(C)(C)C)c(OCCOc2ccc(CN3CCN(c4cc(-c5ccccc5O)nnc4N)CC3)cc2)c1`, for which the EC50 turned out to be 16 nM.

Consider `Cc1ncsc1-c1ccc(CNC(=O)[C@@H]2C[C@@H](O)CN2C(=O)[C@@H](NC(=O)C2(F)CC2)C(C)(C)C)c(OCCCc2ccc(CN3CCN(c4cc(-c5ccccc5O)nnc4N)CC3)cc2)c1`, for which the EC50 turned out to be 25 nM.

In the case of `Cc1ncsc1-c1ccc(CNC(=O)[C@@H]2C[C@@H](O)CN2C(=O)[C@@H](NC(=O)C2(F)CC2)C(C)(C)C)c(OCCc2ccc(CN3CCN(c4cc(-c5ccccc5O)nnc4N)CC3)cc2)c1`, the EC50 came out at 117 nM.

Another assay has as its target von Hippel-Lindau disease tumor suppressor/SWI/SNF-related matrix-associated actin-dependent regulator of chromatin subfamily A member 2 (Homo sapiens, UniProt P40337+P51531). Nature of the assay: Protac activity at VHL/SMARCA2 in human A549 cells assessed as induction of SMARCA2 bromodomain degradation using rabbit anti-SMARCA2 antibody incubated for 18 hrs by WES capillary electrophoresis. Format: cell-based.
Turning to `Cc1ncsc1-c1ccc(CNC(=O)[C@@H]2C[C@@H](O)CN2C(=O)[C@@H](NC(=O)C2(F)CC2)C(C)(C)C)c(OCCCOc2ccc(CN3CCN(c4cc(-c5ccccc5O)nnc4N)CC3)cc2)c1`, the EC50 was found to be 26 nM.

As to `Cc1ncsc1-c1ccc(CNC(=O)[C@@H]2C[C@@H](O)CN2C(=O)[C@@H](NC(=O)C2(F)CC2)C(C)(C)C)c(OCCc2ccc(OCCN3CCN(c4cc(-c5ccccc5O)nnc4N)CC3)cc2)c1`, the half-maximal effective concentration (EC50) is 41 nM.

For `Cc1ncsc1-c1ccc(CNC(=O)[C@@H]2C[C@@H](O)CN2C(=O)[C@@H](NC(=O)C2(F)CC2)C(C)(C)C)c(OCCc2ccc(CN3CCN(c4cc(-c5ccccc5O)nnc4N)CC3)c(F)c2)c1`, the EC50 turned out to be 55 nM.

As to `Cc1ncsc1-c1ccc(CNC(=O)[C@@H]2C[C@@H](O)CN2C(=O)[C@@H](NC(=O)C2(F)CC2)C(C)(C)C)c(OCCOc2ccc(CN3CCN(c4cc(-c5ccccc5O)nnc4N)CC3)cc2)c1`, the EC50 amounted to 12 nM.

For the compound `Cc1ncsc1-c1ccc(CNC(=O)[C@@H]2C[C@@H](O)CN2C(=O)[C@@H](NC(=O)C2(F)CC2)C(C)(C)C)c(OCCCc2ccc(CN3CCN(c4cc(-c5ccccc5O)nnc4N)CC3)cc2)c1`, the EC50 worked out at 58 nM.

Take `Cc1ncsc1-c1ccc(CNC(=O)[C@@H]2C[C@@H](O)CN2C(=O)[C@@H](NC(=O)C2(F)CC2)C(C)(C)C)c(OCCc2ccc(CN3CCN(c4cc(-c5ccccc5O)nnc4N)CC3)cc2)c1`: the EC50 was 67 nM.

Values taken from ChEMBL document CHEMBL4725421, “SMARCA2/4 PROTAC for Targeted Protein Degradation and Cancer Therapy” (ACS Med Chem Lett, 2020).
